Experimental data: the supplement of paper PMC10307832

Legend:
Assay in all cases: relative viability (nuclei count vs DMSO), 5 days (fraction); higher = more cells survive
RO-3306 + Pemetrexed = compound: C1=CC2=C(C=CC(=C2)C=C3C(=O)NC(=NCC4=CC=CS4)S3)N=C1 [RO-3306] + Nc1nc2[nH]cc(CCc3ccc(C(=O)N[C@@H](CCC(=O)O)C(=O)O)cc3)c2c(=O)[nH]1 [Pemetrexed] (partner 0.2 µM)
Summary of the method: (§1)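 Five library-drug doses in √10 steps were combined with a fixed anchor-drug dose, or a single drug was given alone, by pin tool to lung cancer cell lines in 1536-well plates the day after seeding. Nuclei were stained and counted after 5 days. Relative viability is the nuclei count in treated wells over that in vehicle wells, taken as the median of duplicate plates.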

RO-3306 + Trametinib = compound: C1=CC2=C(C=CC(=C2)C=C3C(=O)NC(=NCC4=CC=CS4)S3)N=C1 [RO-3306] + CC(=O)Nc1cccc(-n2c(=O)n(C3CC3)c(=O)c3c(Nc4ccc(I)cc4F)n(C)c(=O)c(C)c32)c1 [Trametinib] (partner 0.02 µM)
Summary of the method: as §1

[1] = compound: O=S(=O)(c1ccccc1)N(CC(F)(F)F)c1ccc(C(O)(C(F)(F)F)C(F)(F)F)cc1 + Cc1nc(Nc2ncc(C(=O)Nc3c(C)cccc3Cl)s2)cc(N2CCN(CCO)CC2)n1 [Dasatinib] (partner 0.075 µM)
Summary of the method: as §1

RO-3306 + Dasatinib = compound: C1=CC2=C(C=CC(=C2)C=C3C(=O)NC(=NCC4=CC=CS4)S3)N=C1 [RO-3306] + Cc1nc(Nc2ncc(C(=O)Nc3c(C)cccc3Cl)s2)cc(N2CCN(CCO)CC2)n1 [Dasatinib] (partner 0.075 µM)
Summary of the method: as §1

Cell Line | relative viability (RO-3306 + Pemetrexed; first compound 0.01 µM) | relative viability (RO-3306 + Pemetrexed; first compound 0.03162 µM) | relative viability (RO-3306 + Pemetrexed; first compound 0.1 µM) | relative viability (RO-3306 + Pemetrexed; first compound 0.3162 µM) | relative viability (RO-3306 + Pemetrexed; first compound 1 µM) | relative viability (RO-3306 + Trametinib; first compound 0.01 µM) | relative viability (RO-3306 + Trametinib; first compound 0.03162 µM) | relative viability (RO-3306 + Trametinib; first compound 0.1 µM) | relative viability (RO-3306 + Trametinib; first compound 0.3162 µM) | relative viability (RO-3306 + Trametinib; first compound 1 µM) | relative viability ([1]; first compound 0.8 µM) | relative viability ([1]; first compound 2.53 µM) | relative viability ([1]; first compound 8 µM) | relative viability (RO-3306 + Dasatinib; first compound 0.01 µM) | relative viability (RO-3306 + Dasatinib; first compound 0.03162 µM) | relative viability (RO-3306 + Dasatinib; first compound 0.1 µM) | relative viability (RO-3306 + Dasatinib; first compound 0.3162 µM) | relative viability (RO-3306 + Dasatinib; first compound 1 µM)
HCC-15 | 0.203 | 0.21 | 0.26 | 0.225 | 0.199 | 0.414 | 0.359 | 0.374 | 0.36 | 0.391 | 0.616 | 0.496 | 0.539 | 0.594 | 0.554 | 0.59 | 0.534 | 0.574
HCC-44 | 0.712 | 0.643 | 0.651 | 0.622 | 0.744 | 1.06 | 0.933 | 1.15 | 1.13 | 1.08 |  |  |  |  |  |  |  | 
NCI-H2170 | 0.314 | 0.311 | 0.241 | 0.251 | 0.271 | 1.18 | 0.792 | 0.886 | 0.96 | 0.958 | 0.568 | 0.588 | 0.444 | 0.492 | 0.585 | 0.57 | 0.621 | 0.456
NCI-H2228 | 0.356 | 0.36 | 0.347 | 0.355 | 0.265 | 0.541 | 0.43 | 0.436 | 0.62 | 0.281 | 0.415 | 0.401 | 0.363 | 0.569 | 0.435 | 0.47 | 0.562 | 0.453
NCI-H727 |  |  |  |  |  | 0.39 | 0.388 | 0.355 | 0.352 | 0.409 | 0.408 | 0.302 | 0.325 | 0.346 |  | 0.413 | 0.402 | 0.523
NCI-H522 | 1.16 | 0.947 | 0.868 | 1.16 | 1.03 | 0.652 | 0.521 | 0.664 | 0.712 | 0.666 | 0.821 | 0.904 | 1.07 | 0.895 | 0.854 | 0.82 | 0.823 | 0.846
NCI-H1563 | 0.847 | 0.788 | 0.818 | 0.852 | 0.692 |  |  |  |  |  | 0.402 | 0.427 | 0.435 | 0.413 | 0.526 | 0.415 | 0.48 | 0.451
EPLC-272H | 0.36 | 0.436 | 0.406 | 0.3 | 0.247 | 0.272 |  | 0.293 | 0.284 | 0.271 | 0.323 | 0.398 | 0.384 | 0.365 | 0.193 | 0.384 | 0.237 | 0.299
NCI-H1437 | 0.343 | 0.311 | 0.374 | 0.344 | 0.37 | 0.539 | 0.409 | 0.54 | 0.543 | 0.527 | 0.327 | 0.297 | 0.287 | 0.428 | 0.288 | 0.283 | 0.405 | 0.461
CAL-12T | 1.38 | 1.35 | 1.17 | 1.15 | 1.26 | 0.374 | 0.302 | 0.309 | 0.245 | 0.324 | 0.331 | 0.216 | 0.392 | 0.394 | 0.279 | 0.345 | 0.372 | 0.356
SK-LU-1 | 1.03 | 0.918 | 0.963 | 0.949 | 0.897 | 0.463 | 0.412 | 0.501 | 0.506 | 0.309 | 0.161 | 0.166 | 0.177 | 0.14 | 0.177 | 0.18 | 0.198 | 0.151
LCLC-97TM1 | 0.175 | 0.169 | 0.144 | 0.178 | 0.185 | 0.214 | 0.186 | 0.191 | 0.204 | 0.165 | 0.724 | 0.734 | 0.682 | 0.792 | 0.714 | 0.929 | 0.779 | 0.859
LXF-289 | 0.805 | 0.8 | 1.04 | 0.9 | 0.868 | 0.741 | 0.63 | 0.647 | 0.673 | 0.695 | 0.163 | 0.141 | 0.153 | 0.19 | 0.259 | 0.199 | 0.198 | 0.2
HCC-366 | 0.215 | 0.194 | 0.198 | 0.137 | 0.213 | 0.378 | 0.326 | 0.374 | 0.381 | 0.313 | 0.856 | 0.674 | 0.606 | 0.794 | 0.565 | 0.677 | 0.668 | 0.652
NCI-H1355 | 1.15 | 0.976 | 0.961 | 0.97 | 1.05 | 0.472 | 0.324 | 0.404 | 0.448 | 0.376 | 0.771 | 0.661 | 0.663 | 0.673 |  | 0.683 | 0.703 | 0.504
H3255 | 0.506 | 0.501 | 0.547 | 0.57 | 0.57 | 0.791 | 0.533 | 0.584 | 0.557 | 0.546 | 0.292 | 0.309 | 0.362 | 0.358 | 0.381 | 0.353 | 0.327 | 0.329
NCI-H1623 |  |  |  |  |  |  |  |  |  |  | 0.528 | 0.51 | 0.493 | 0.474 | 0.504 | 0.525 | 0.555 | 0.52
ABC-1 |  |  |  |  |  |  |  |  |  |  | 0.649 | 0.531 | 0.654 | 0.644 | 0.614 | 0.483 | 0.458 | 0.531
NCI-H1648 | 0.887 |  | 0.602 | 0.697 | 0.873 | 0.482 |  | 0.47 | 0.538 | 0.404 |  |  |  |  |  |  |  | 
